Data as given in ChEMBL document CHEMBL1157814, “Modulation of cellular adhesion by glycoengineering” (J Med Chem, 2010).
Calls of active or inactive are those of the source. The calls are words filed in the database; no cut-off is given here.

Target: T1, P-selectin (Homo sapiens) (UniProt P16109)
T1 sequence (whole entry): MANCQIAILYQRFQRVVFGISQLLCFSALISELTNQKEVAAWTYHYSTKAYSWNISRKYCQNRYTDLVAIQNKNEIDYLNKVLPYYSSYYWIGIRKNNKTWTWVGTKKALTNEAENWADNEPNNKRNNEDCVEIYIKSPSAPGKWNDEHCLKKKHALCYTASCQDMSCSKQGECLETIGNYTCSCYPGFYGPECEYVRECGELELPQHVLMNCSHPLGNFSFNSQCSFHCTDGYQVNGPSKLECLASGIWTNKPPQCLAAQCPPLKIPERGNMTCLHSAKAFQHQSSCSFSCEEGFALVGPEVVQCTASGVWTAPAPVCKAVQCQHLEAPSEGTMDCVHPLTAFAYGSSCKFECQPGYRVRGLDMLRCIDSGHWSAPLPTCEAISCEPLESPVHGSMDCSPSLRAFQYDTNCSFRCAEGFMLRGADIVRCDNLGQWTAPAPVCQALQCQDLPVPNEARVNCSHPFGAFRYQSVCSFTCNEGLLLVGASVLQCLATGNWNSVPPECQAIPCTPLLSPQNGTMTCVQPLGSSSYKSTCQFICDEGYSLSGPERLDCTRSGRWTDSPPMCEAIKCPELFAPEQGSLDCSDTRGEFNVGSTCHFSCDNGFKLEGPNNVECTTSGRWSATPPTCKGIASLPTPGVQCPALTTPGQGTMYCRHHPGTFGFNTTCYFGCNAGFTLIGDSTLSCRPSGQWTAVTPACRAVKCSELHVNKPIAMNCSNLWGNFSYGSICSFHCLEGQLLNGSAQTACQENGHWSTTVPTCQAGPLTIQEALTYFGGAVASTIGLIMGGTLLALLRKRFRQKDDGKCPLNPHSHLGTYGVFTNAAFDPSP
Experiment: Inhibition of human HL60 cell adhesion to P-selectin coated on microtiter plates assessed as reduction in adhesion at 200 uM after 3 days by calcein-AM assay relative to untreated cells
Type: cell-based
Design: scale not given: the % may be the effect or the level left
Conditions: HL-60

In the case of `CCC(=O)N[C@H]1[C@H]([C@@H](OC(C)=O)[C@@H](COC(C)=O)OC(C)=O)O[C@@](OC(C)=O)(C(=O)OC)C[C@@H]1OC(C)=O`, the Activity is reported as “Active”.

Compared with `COC(=O)[C@@]1(OC(C)=O)C[C@H](OC(C)=O)[C@@H](NC(=O)CCC(C)C)[C@H]([C@@H](OC(C)=O)[C@@H](COC(C)=O)OC(C)=O)O1`, `COC(=O)[C@@]1(OC(C)=O)C[C@H](OC(C)=O)[C@@H](NC(=O)CC(C)C)[C@H]([C@@H](OC(C)=O)[C@@H](COC(C)=O)OC(C)=O)O1` is lower in Activity: 44% for the first, 10% for the second.

First: COC(=O)[C@@]1(OC(C)=O)C[C@H](OC(C)=O)[C@@H](NC(=O)CC(F)(F)F)[C@H]([C@@H](OC(C)=O)[C@@H](COC(C)=O)OC(C)=O)O1
Second: COC(=O)[C@@]1(OC(C)=O)C[C@H](OC(C)=O)[C@@H](NC(=O)CCC(F)(F)F)[C@H]([C@@H](OC(C)=O)[C@@H](COC(C)=O)OC(C)=O)O1
The Activity of the first is lower: 62% for the first, 77% for the second.
